From BigSolDB 2.1

On1nnc2ccccc21
Details | solubility (mole fraction)
in 1,4-dioxane, 288.15 K | 0.0145
in 1,4-dioxane, 290.65 K | 0.0158
in 1,4-dioxane, 293.15 K | 0.0171
in 1,4-dioxane, 295.65 K | 0.0187
in 1,4-dioxane, 298.15 K | 0.0202
in 1,4-dioxane, 300.65 K | 0.0225
in 1,4-dioxane, 303.15 K | 0.0247
in 1,4-dioxane, 305.65 K | 0.0272
in 1,4-dioxane, 308.15 K | 0.0298
in 1,4-dioxane, 310.65 K | 0.0331
in 1,4-dioxane, 313.15 K | 0.0364
in 2-butanone, 278.15 K | 0.0157
in 2-butanone, 280.65 K | 0.0169
in 2-butanone, 283.15 K | 0.0181
in 2-butanone, 285.65 K | 0.0195
in 2-butanone, 288.15 K | 0.021
in 2-butanone, 290.65 K | 0.0225
in 2-butanone, 293.15 K | 0.0241
in 2-butanone, 295.65 K | 0.0259
in 2-butanone, 298.15 K | 0.0278
in 2-butanone, 300.65 K | 0.0299
in 2-butanone, 303.15 K | 0.0323
in 2-butanone, 305.65 K | 0.0347
in 2-butanone, 308.15 K | 0.0372
in 2-butanone, 310.65 K | 0.0402
in 2-butanone, 313.15 K | 0.0433
in DMF, 278.15 K | 0.0412
in DMF, 280.65 K | 0.0464
in DMF, 283.15 K | 0.0522
in DMF, 285.65 K | 0.0587
in DMF, 288.15 K | 0.0646
in DMF, 290.65 K | 0.072
in DMF, 293.15 K | 0.0794
in DMF, 295.65 K | 0.0884
in DMF, 298.15 K | 0.098
in DMF, 300.65 K | 0.109
in DMF, 303.15 K | 0.121
in DMF, 305.65 K | 0.134
in DMF, 308.15 K | 0.148
in DMF, 310.65 K | 0.164
in DMF, 313.15 K | 0.18
in DMSO, 278.15 K | 0.0337
in DMSO, 280.65 K | 0.0377
in DMSO, 283.15 K | 0.0421
in DMSO, 285.65 K | 0.0475
in DMSO, 288.15 K | 0.0529
in DMSO, 290.65 K | 0.0592
in DMSO, 293.15 K | 0.0664
in DMSO, 295.65 K | 0.0738
in DMSO, 298.15 K | 0.082
in DMSO, 300.65 K | 0.0921
in DMSO, 303.15 K | 0.103
in DMSO, 305.65 K | 0.114
in DMSO, 308.15 K | 0.128
in DMSO, 310.65 K | 0.142
in DMSO, 313.15 K | 0.157
in acetone, 278.15 K | 0.0139
in acetone, 280.65 K | 0.0149
in acetone, 283.15 K | 0.016
in acetone, 285.65 K | 0.0171
in acetone, 288.15 K | 0.0184
in acetone, 290.65 K | 0.0198
in acetone, 293.15 K | 0.0214
in acetone, 295.65 K | 0.0229
in acetone, 298.15 K | 0.0246
in acetone, 300.65 K | 0.0266
in acetone, 303.15 K | 0.0285
in acetone, 305.65 K | 0.0306
in acetone, 308.15 K | 0.033
in acetone, 310.65 K | 0.0355
in acetone, 313.15 K | 0.0383
in acetonitrile, 278.15 K | 0.00229
in acetonitrile, 280.65 K | 0.00249
in acetonitrile, 283.15 K | 0.00271
in acetonitrile, 285.65 K | 0.00295
in acetonitrile, 288.15 K | 0.00322
in acetonitrile, 290.65 K | 0.00348
in acetonitrile, 293.15 K | 0.0038
in acetonitrile, 295.65 K | 0.00414
in acetonitrile, 298.15 K | 0.00449
in acetonitrile, 300.65 K | 0.00488
in acetonitrile, 303.15 K | 0.00531
in acetonitrile, 305.65 K | 0.0058
in acetonitrile, 308.15 K | 0.00631
in acetonitrile, 310.65 K | 0.00685
in acetonitrile, 313.15 K | 0.00749
in ethanol, 278.15 K | 0.0318
in ethanol, 280.65 K | 0.0331
in ethanol, 283.15 K | 0.0355
in ethanol, 285.65 K | 0.0377
in ethanol, 288.15 K | 0.0406
in ethanol, 290.65 K | 0.0433
in ethanol, 293.15 K | 0.0462
in ethanol, 295.65 K | 0.0493
in ethanol, 298.15 K | 0.0528
in ethanol, 300.65 K | 0.0566
in ethanol, 303.15 K | 0.0605
in ethanol, 305.65 K | 0.0651
in ethanol, 308.15 K | 0.0697
in ethanol, 310.65 K | 0.0746
in ethanol, 313.15 K | 0.0802
in ethyl acetate, 278.15 K | 0.00505
in ethyl acetate, 280.65 K | 0.00555
in ethyl acetate, 283.15 K | 0.00606
in ethyl acetate, 285.65 K | 0.00676
in ethyl acetate, 288.15 K | 0.00745
in ethyl acetate, 290.65 K | 0.00821
in ethyl acetate, 293.15 K | 0.00908
in ethyl acetate, 295.65 K | 0.0101
in ethyl acetate, 298.15 K | 0.0115
in ethyl acetate, 300.65 K | 0.013
in ethyl acetate, 303.15 K | 0.0149
in ethyl acetate, 305.65 K | 0.0169
in ethyl acetate, 308.15 K | 0.0193
in ethyl acetate, 310.65 K | 0.0219
in ethyl acetate, 313.15 K | 0.0247
in isooctanol, 278.15 K | 0.0108
in isooctanol, 280.65 K | 0.0112
in isooctanol, 283.15 K | 0.0115
in isooctanol, 285.65 K | 0.0119
in isooctanol, 288.15 K | 0.0123
in isooctanol, 290.65 K | 0.0127
in isooctanol, 293.15 K | 0.0132
in isooctanol, 295.65 K | 0.0137
in isooctanol, 298.15 K | 0.0143
in isooctanol, 300.65 K | 0.0149
in isooctanol, 303.15 K | 0.0154
in isooctanol, 305.65 K | 0.0161
in isooctanol, 308.15 K | 0.0168
in isooctanol, 310.65 K | 0.0175
in isooctanol, 313.15 K | 0.0182
in isopentanol, 278.15 K | 0.0109
in isopentanol, 280.65 K | 0.0114
in isopentanol, 283.15 K | 0.0118
in isopentanol, 285.65 K | 0.0123
in isopentanol, 288.15 K | 0.0127
in isopentanol, 290.65 K | 0.0132
in isopentanol, 293.15 K | 0.0137
in isopentanol, 295.65 K | 0.0143
in isopentanol, 298.15 K | 0.0148
in isopentanol, 300.65 K | 0.0155
in isopentanol, 303.15 K | 0.0161
in isopentanol, 305.65 K | 0.0167
in isopentanol, 308.15 K | 0.0174
in isopentanol, 310.65 K | 0.0181
in isopentanol, 313.15 K | 0.0188
in isopropanol, 278.15 K | 0.0248
in isopropanol, 280.65 K | 0.0261
in isopropanol, 283.15 K | 0.0281
in isopropanol, 285.65 K | 0.0301
in isopropanol, 288.15 K | 0.032
in isopropanol, 290.65 K | 0.0341
in isopropanol, 293.15 K | 0.0367
in isopropanol, 295.65 K | 0.0392
in isopropanol, 298.15 K | 0.0421
in isopropanol, 300.65 K | 0.0451
in isopropanol, 303.15 K | 0.0481
in isopropanol, 305.65 K | 0.0515
in isopropanol, 308.15 K | 0.0553
in isopropanol, 310.65 K | 0.0592
in isopropanol, 313.15 K | 0.0637
in methanol, 278.15 K | 0.0223
in methanol, 280.65 K | 0.0239
in methanol, 283.15 K | 0.0254
in methanol, 285.65 K | 0.0274
in methanol, 288.15 K | 0.0294
in methanol, 290.65 K | 0.0314
in methanol, 293.15 K | 0.0336
in methanol, 295.65 K | 0.0358
in methanol, 298.15 K | 0.0386
in methanol, 300.65 K | 0.0415
in methanol, 303.15 K | 0.0445
in methanol, 305.65 K | 0.048
in methanol, 308.15 K | 0.0522
in methanol, 310.65 K | 0.0562
in methanol, 313.15 K | 0.0609
in n-heptanol, 278.15 K | 0.0119
in n-heptanol, 280.65 K | 0.0123
in n-heptanol, 283.15 K | 0.0129
in n-heptanol, 285.65 K | 0.0134
in n-heptanol, 288.15 K | 0.014
in n-heptanol, 290.65 K | 0.0146
in n-heptanol, 293.15 K | 0.0152
in n-heptanol, 295.65 K | 0.0158
in n-heptanol, 298.15 K | 0.0165
in n-heptanol, 300.65 K | 0.0173
in n-heptanol, 303.15 K | 0.0182
in n-heptanol, 305.65 K | 0.019
in n-heptanol, 308.15 K | 0.02
in n-heptanol, 310.65 K | 0.021
in n-heptanol, 313.15 K | 0.022
in n-hexanol, 278.15 K | 0.0114
in n-hexanol, 280.65 K | 0.0118
in n-hexanol, 283.15 K | 0.0123
in n-hexanol, 285.65 K | 0.0129
in n-hexanol, 288.15 K | 0.0134
in n-hexanol, 290.65 K | 0.0139
in n-hexanol, 293.15 K | 0.0145
in n-hexanol, 295.65 K | 0.0152
in n-hexanol, 298.15 K | 0.0159
in n-hexanol, 300.65 K | 0.0166
in n-hexanol, 303.15 K | 0.0174
in n-hexanol, 305.65 K | 0.0182
in n-hexanol, 308.15 K | 0.019
in n-hexanol, 310.65 K | 0.0198
in n-hexanol, 313.15 K | 0.0206
in n-propanol, 278.15 K | 0.0297
in n-propanol, 280.65 K | 0.0319
in n-propanol, 283.15 K | 0.034
in n-propanol, 285.65 K | 0.0362
in n-propanol, 288.15 K | 0.0387
in n-propanol, 290.65 K | 0.0412
in n-propanol, 293.15 K | 0.044
in n-propanol, 295.65 K | 0.0472
in n-propanol, 298.15 K | 0.0502
in n-propanol, 300.65 K | 0.0535
in n-propanol, 303.15 K | 0.0573
in n-propanol, 305.65 K | 0.0612
in n-propanol, 308.15 K | 0.0655
in n-propanol, 310.65 K | 0.0698
in n-propanol, 313.15 K | 0.0749
in toluene, 278.15 K | 1.1e-05
in toluene, 280.65 K | 1.2e-05
in toluene, 283.15 K | 1.5e-05
in toluene, 285.65 K | 1.61e-05
in toluene, 288.15 K | 1.99e-05
in toluene, 290.65 K | 2.17e-05
in toluene, 293.15 K | 2.49e-05
in toluene, 295.65 K | 2.85e-05
in toluene, 298.15 K | 3.26e-05
in toluene, 300.65 K | 3.61e-05
in toluene, 303.15 K | 4.28e-05
in toluene, 305.65 K | 4.87e-05
in toluene, 308.15 K | 5.56e-05
in toluene, 310.65 K | 6.2e-05
in toluene, 313.15 K | 6.92e-05
